# Experiments:
# [1] = target: T1, Mucosa-associated lymphoid tissue lymphoma translocation protein 1 (Homo sapiens, UniProt Q9UDY8); experiment: Allosteric inhibition of MALT1 in human OCI-LY3 cells assessed as reduction in BCL10 cleavage measured after 24 hrs by ELISA; type: cell-based, OCILY3
# T1 sequence (Q9UDY8 whole entry): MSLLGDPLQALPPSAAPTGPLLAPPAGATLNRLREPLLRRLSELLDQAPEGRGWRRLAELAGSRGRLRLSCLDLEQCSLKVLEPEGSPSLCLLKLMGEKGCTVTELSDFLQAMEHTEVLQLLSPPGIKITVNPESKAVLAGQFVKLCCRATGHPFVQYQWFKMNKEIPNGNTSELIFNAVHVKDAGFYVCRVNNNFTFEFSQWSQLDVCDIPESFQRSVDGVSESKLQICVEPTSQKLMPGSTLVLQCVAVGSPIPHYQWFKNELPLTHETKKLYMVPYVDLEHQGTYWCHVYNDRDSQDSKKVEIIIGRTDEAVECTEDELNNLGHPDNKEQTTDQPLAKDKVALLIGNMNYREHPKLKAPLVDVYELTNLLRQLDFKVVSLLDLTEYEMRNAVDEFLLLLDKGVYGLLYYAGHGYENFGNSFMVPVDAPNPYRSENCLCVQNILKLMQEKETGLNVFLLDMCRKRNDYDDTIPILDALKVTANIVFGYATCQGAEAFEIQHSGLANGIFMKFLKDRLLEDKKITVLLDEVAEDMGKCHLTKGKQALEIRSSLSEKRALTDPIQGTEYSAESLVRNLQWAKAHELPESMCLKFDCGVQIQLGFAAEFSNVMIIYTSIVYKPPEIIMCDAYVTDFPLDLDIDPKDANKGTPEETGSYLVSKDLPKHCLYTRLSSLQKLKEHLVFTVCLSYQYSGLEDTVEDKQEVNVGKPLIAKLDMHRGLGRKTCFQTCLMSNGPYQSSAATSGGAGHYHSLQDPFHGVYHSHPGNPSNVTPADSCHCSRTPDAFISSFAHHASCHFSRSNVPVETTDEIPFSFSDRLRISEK
# [2] = Solubility of the compound at pH 6.8; type: physicochemical; conditions: buffer
# [3] = target: T1, Mucosa-associated lymphoid tissue lymphoma translocation protein 1; experiment: Allosteric inhibition of human wild-type […] MALT1 (329 to 824 residues) protease activity using Ac-Leu-Arg-Ser-Arg Rh110-dPro as substrate preincubated for 60 mins followed by substrate addition and measured after 60 mins by fluorescence assay
# [4] = Solubility of compound at pH 6.8; type: physicochemical; conditions: buffer
# [5] = Solubility of compound at pH 6.8 assessed as extrapolated log of solubility; type: physicochemical; conditions: buffer
# [6] = Lipophilicity, log D of the compound at pH 7.4; type: physicochemical; conditions: buffer
# [7] = Permeability of compound by PAMPA assay; type: ADME
# [8] = Intrinsic clearance in rat liver microsomes; type: ADME, Microsome; conditions: read-out: CLH
# [9] = Protein binding in rat plasma; type: ADME, cell-free; conditions: read-out: PPB (converted)
# [10] = Clearance in male Sprague-Dawley rat at 1 mg/kg, iv administered as bolus dose; type: ADME, organism-based; conditions: in vivo
# [11] = Volume of distribution at steady state in Sprague-Dawley rat at 1 mg/kg, iv administered as bolus dose; type: ADME, organism-based; conditions: in vivo, read-out: Vdss
# [12] = Terminal half-life in Sprague-Dawley rat at 1 mg/kg, iv administered as bolus dose; type: ADME, organism-based; conditions: in vivo, read-out: beta t1/2 (converted)
# [13] = Dose normalized AUC in Sprague-Dawley rat at 1 mg/kg, iv administered as bolus dose; type: ADME, organism-based; conditions: in vivo
# [14] = Dose normalized AUC in Sprague-Dawley rat at 3 mg/kg, po administered as MCT suspension; type: ADME, organism-based; conditions: in vivo
# [15] = Dose normalized AUC in Sprague-Dawley rat at 1.25 mg/kg, po administered as solution; type: ADME, organism-based; conditions: in vivo
# [16] = Oral bioavailability in Sprague-Dawley rat at 3 mg/kg administered as MCT suspension; type: ADME, organism-based; conditions: in vivo
# [17] = Oral bioavailability in Sprague-Dawley rat at 1.25 mg/kg administered as solution; type: ADME, organism-based; conditions: in vivo
# [18] = Dose normalized Cmax in Sprague-Dawley rat at 3 mg/kg, po administered as MCT suspension; type: ADME, organism-based; conditions: in vivo
# [19] = Dose normalized Cmax in Sprague-Dawley rat at 1.25 mg/kg, po administered as solution; type: ADME, organism-based; conditions: in vivo
# [20] = Tmax in Sprague-Dawley rat at 3 mg/kg, po administered as MCT suspension; type: ADME, organism-based; conditions: in vivo
# [21] = Tmax in Sprague-Dawley rat at 1.25 mg/kg, po administered as solution; type: ADME, organism-based; conditions: in vivo
# [22] = Thermodynamic solubility of the compound at pH 6.8; type: physicochemical; conditions: buffer, read-out: Therm_solubility
# [23] = target: Voltage-gated inwardly rectifying potassium channel KCNH2 (Homo sapiens, UniProt Q12809); experiment: Inhibition of human ERG
# Chain of Voltage-gated inwardly rectifying potassium channel KCNH2 (Q12809 whole entry): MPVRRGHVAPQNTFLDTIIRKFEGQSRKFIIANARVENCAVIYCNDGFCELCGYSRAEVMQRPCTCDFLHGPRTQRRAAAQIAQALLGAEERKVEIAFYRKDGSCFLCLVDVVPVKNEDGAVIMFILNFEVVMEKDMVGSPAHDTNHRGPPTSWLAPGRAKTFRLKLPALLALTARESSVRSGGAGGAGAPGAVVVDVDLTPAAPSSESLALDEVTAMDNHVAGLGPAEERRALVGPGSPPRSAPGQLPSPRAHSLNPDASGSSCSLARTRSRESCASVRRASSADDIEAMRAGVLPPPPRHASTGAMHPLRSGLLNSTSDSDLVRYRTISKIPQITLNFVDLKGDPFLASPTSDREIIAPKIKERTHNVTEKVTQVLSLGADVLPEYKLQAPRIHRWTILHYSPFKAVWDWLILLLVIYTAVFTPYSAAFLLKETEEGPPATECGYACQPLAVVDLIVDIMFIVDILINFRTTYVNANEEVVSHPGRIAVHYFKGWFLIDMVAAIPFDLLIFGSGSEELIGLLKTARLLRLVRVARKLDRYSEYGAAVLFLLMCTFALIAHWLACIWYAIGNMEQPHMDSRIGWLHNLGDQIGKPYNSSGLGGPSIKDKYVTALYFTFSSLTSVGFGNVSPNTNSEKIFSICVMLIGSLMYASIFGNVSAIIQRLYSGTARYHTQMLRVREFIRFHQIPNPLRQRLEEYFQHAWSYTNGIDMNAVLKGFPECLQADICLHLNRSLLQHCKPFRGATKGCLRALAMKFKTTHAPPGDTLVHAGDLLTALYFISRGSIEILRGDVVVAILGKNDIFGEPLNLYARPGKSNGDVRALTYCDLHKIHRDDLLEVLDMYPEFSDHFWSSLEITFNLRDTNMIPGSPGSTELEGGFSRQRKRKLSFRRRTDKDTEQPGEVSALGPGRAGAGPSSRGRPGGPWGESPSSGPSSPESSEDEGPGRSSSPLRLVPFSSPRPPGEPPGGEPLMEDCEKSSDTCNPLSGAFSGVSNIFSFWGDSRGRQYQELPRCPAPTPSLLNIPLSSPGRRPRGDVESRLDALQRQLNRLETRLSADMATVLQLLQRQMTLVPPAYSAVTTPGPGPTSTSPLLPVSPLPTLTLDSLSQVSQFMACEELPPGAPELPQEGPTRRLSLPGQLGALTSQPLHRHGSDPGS
Structure (SMILES),IC50 [1] [nM],solubility [2] [µM],IC50 [3] [nM],further results
COc1ncc(NC(=O)Nc2cnc3cc(Cl)nn3c2N2[C@@H](C)COC[C@@H]2C)cc1Cl,330,81,6,–
COc1ncc(NC(=O)Nc2cnc3ccc(C#N)cc3c2N(C)C2CCOCC2)cc1Cl,190,< 4,2,–
C[C@H]1COCCN1c1c(NC(=O)Nc2cnc(OC3CCN(C)CC3)c(Cl)c2)cnc2ccc(F)cc12,–,60,70,–
COc1ncc(NC(=O)Nc2cnc3cc(Br)nn3c2N2CCOC[C@@H]2C)cc1Cl,740,155,17,–
COc1ccc(NC(=O)Nc2cnc3ccc(Br)cc3c2)cc1Cl,4820,< 4,242,–
COc1ccc(NC(=O)NC2CSc3ccc(F)cc3C2)cc1Cl (racemic),4270,–,145,–
COc1ccc(NC(=O)Nc2cnc3ccc(C#N)cc3c2N(C)C2CCOCC2)cc1Cl,670,27,8,log1/S [4]: 7.1; log1/S0 [4]: 7.1; log1/S [5]: 7.1
COc1ncc(NC(=O)Nc2cnc3ccc(C#N)cc3c2N2CCOC[C@@H]2C)cc1Cl,37,< 4,5,logD [6]: 3.8; log(permeability) [7]: -4.9; microsomal CLint [8]: 3.4 µL/min/mg; fraction unbound [9]: 0.025; clearance [10]: 31 mL/min/kg; Vd [11]: 4.8 L/kg; half-life [12]: 2.1 h; AUC/dose [13]: 1240 nM·h; AUC/dose [14]: 103 nM·h; AUC/dose [15]: 520 nM·h; bioavailability [16]: 8%; bioavailability [17]: 42%; Cmax/dose [18]: 11 nM; Cmax/dose [19]: 71 nM; Tmax [20]: 8 h; Tmax [21]: 3 h; solubility thermodynamic [22]: 0.2 µg/mL
O=C(Nc1ccc(-n2cncn2)c(Cl)c1)N[C@H]1COc2ccc(Br)cc2C1,1960,–,26,–
COc1ccc(NC(=O)NC2COc3ccc(C#N)cc3C2)cc1Cl (racemic),1920,–,150,–
COc1ncc(NC(=O)Nc2cnc3cc(Cl)nn3c2N2CCOCC2(C)C)cc1Cl,80,< 4,2,–
COc1ncc(NC(=O)NC2COc3ccc(Br)cc3C2)cc1Cl (stereo not given),3540,–,31,–
COc1ccc(NC(=O)Nc2cnc3ccc(Br)cc3c2Cl)cc1Cl,510,< 4,29,–
COc1ccc(NC(=O)N(C)C2COc3ccc(Br)cc3C2)cc1Cl (stereo not given),–,–,> 100000,–
COc1ccc(N(C)C(=O)NC2COc3ccc(Br)cc3C2)cc1Cl (stereo not given),–,–,> 100000,–
COc1ccc(NC(=O)Nc2cnc3ccc(C#N)cc3c2N2CCOC[C@@H]2C)cc1Cl,120,< 4,6,–
CC1(C)COCCN1c1c(NC(=O)Nc2ccnc(C(F)(F)F)c2)cnc2cc(Cl)nn12,280,8,6,–
COc1ncc(NC(=O)Nc2cnc3ccc(F)cc3c2N(C)C2CCCN(C)C2)cc1Cl (stereo not given),–,61,70,IC50 [23]: 9000 nM

# Second part, led by results:
IC50 [1] [nM],solubility [2] [µM],IC50 [3] [nM],Structure (SMILES),further results
–,–,> 100000,COc1ccc(NC(=O)NC2CCc3ccccc3C2)cc1Cl (racemic),–
–,–,> 100000,COc1ccc(NC(=O)N[C@@H]2COc3ccccc3C2)cc1Cl,–
–,–,1000,COc1ccc(NC(=O)CC2COc3ccccc3C2)cc1Cl (stereo not given),–
–,–,50,COc1ccc(NC(=O)NC2COc3ccc(Br)cc3C2)cc1Cl (racemic),–
1250,–,57,COc1ccc(NC(=O)NC2COc3ccc(F)cc3C2)cc1Cl (racemic),–
–,–,> 100000,COc1ccc(CC(=O)NC2COc3ccccc3C2)cc1Cl (stereo not given),–
2300,–,245,COc1ccc(NC(=O)NC2COc3ccccc3C2)cc1Cl (racemic),–
–,–,135,COc1ccc(NC(=O)N[C@H]2COc3ccccc3C2)cc1Cl,–

# Source: ChEMBL document CHEMBL4673331 (J Med Chem, 2020)
